According to publication PMC3760392 (Bioorganic & medicinal chemistry, 2013):

Columns and labels:
rD2L receptor = rD2L receptor (Rattus norvegicus, UniProt P61169); conditions: read-out: Ki (nM), rD2L [3H]spiperone; HEK293 cells, mean ± SEM
rD3 receptor = rD3 receptor (Rattus norvegicus, UniProt P19020)
D3 than D2 receptor = conditions: cited from earlier work

Sequence of rD3 receptor (P19020 whole entry): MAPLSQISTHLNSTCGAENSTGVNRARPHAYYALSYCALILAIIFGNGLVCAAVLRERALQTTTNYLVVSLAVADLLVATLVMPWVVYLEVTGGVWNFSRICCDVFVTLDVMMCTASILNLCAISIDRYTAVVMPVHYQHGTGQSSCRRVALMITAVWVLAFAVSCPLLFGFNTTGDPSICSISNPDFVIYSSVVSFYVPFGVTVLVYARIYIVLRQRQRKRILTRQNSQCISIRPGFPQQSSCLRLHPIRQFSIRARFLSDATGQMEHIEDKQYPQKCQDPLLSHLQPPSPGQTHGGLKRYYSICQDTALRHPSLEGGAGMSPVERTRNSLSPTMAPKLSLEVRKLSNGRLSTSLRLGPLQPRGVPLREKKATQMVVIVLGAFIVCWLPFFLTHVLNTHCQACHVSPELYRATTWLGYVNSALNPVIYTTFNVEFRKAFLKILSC
Sequence of rD2L receptor (P61169 whole entry): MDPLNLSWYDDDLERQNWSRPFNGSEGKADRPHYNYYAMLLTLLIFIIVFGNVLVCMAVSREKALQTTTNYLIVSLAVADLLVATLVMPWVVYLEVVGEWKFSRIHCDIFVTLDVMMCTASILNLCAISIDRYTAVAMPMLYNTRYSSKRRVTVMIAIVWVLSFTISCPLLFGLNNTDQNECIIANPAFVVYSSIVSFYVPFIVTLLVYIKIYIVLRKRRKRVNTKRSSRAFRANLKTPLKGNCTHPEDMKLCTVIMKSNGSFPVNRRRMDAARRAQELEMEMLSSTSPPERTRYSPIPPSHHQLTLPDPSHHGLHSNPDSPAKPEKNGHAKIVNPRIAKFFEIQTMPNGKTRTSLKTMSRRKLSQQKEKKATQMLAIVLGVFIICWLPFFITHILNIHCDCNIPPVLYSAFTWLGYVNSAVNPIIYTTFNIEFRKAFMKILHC

| Compound | Ki (rD2L receptor) [nM] | D2L/D3 (rD3 receptor; ratio of Ki rD2L / Ki rD3) | Ki (rD3 receptor; read-out: Ki (nM), rD3 [3H]spiperone, HEK293 cells, mean ± SEM) [nM] | fold higher affinity for the D3 than D2 receptor (D3 than D2 receptor) |
| --- | --- | --- | --- | --- |
| N^6-(2-(4-Phenylpiperazin-1-yl)ethyl)-N^6-propyl-5,6,7,8-tetrahydro-1H-naphtho[2,3-d]imidazole-2,6-diamine [Compound 10e] | 15900 | 8.89 | 1790 |  |
| CCCN[C@H]1CCc2nc(N)sc2C1 [pramipexole] |  |  |  | 4- to 10 fold |
